Source: patent US20240284907A1, “NOVEL DERIVATIVES OF NON-CODED AMINO ACIDS AND THEIR USE AS HERBICIDES” (FortePhest LTD., priority 2021, published 2024)

Tested on: Seeds of Lettuce R. (Super-Jericho)
Assay: Filter paper bioassay with lettuce seeds: germination and early plant development, Minimal Effective Concentration (MEC)
Format: in vivo
Details: lettuce seeds on filter paper, 0 to 1 mmol/l, visually assessed after 6 days
Description: Materials: Seeds of Lettuce R. (Super-Jericho, non-sterilized) were obtained from Ben Shahar Moshe Ltd., 99% purity. The test compounds listed in the Table 2 below were synthetized de novo or purchased from different vendors.
Filter Paper Bioassays with Lettuce seeds: The protocol is following Bertin et al. 2009 and Movellan et al. 2014 with specified modifications as described below.
Seeds were placed on Whatman no. 1 filter paper (Whatman, Middlesex, U.K.) in Petri dishes (10 seeds per plate) with 2.0 ml of aqueous solution of a test material in concentration ranged from 0 (control) to 1 mmol/l were placed in a tray tilted at 45[…]. The trays were kept in dark for 48 hours and then transferred to the growth chamber with 6/18 dark/light cycle for 4 days. Each experiment was performed at least with two repeats.
The development of plants' radicle and shoots were visually assessed 6 days after the beginning of the test to determine Minimal Effective Concentration (MEC) of a test material. In the context of the invention, MEC is defined as the lowest concentration level of a test material that caused deviation (absence of germination or malformation of radicle or shoots) from the plant's development in the Control group.

Compound	Score (activity score of Minimal Effective Concentration, MEC)
O=C([O-])Cc1cnsn1.[Li+] [compound 5776, lithium(1+) 2-(1,2,5-thiadiazol-3-yl)acetate[Li+]]	Moderate (0.1 mM)
O=C(O)/C=C/c1ccc(Cl)nc1Cl [compound 694, (2E)-3-(2,6-dichloropyridin-3-yl)prop-2-enoic acid]	Moderate (0.1 mM)
O=C(O)/C=C/c1ccnc(Br)c1[N+](=O)[O-] [compound 6631, (2E)-3-(2-bromo-3-nitropyridin-4-yl)prop-2-enoic acid]	Moderate (0.1 mM)
N-(6-bromopyridin-2-yl)guanidine hydrochloride [compound 6637]	Weak (Higher than 0.1 mM)
O=C(O)Cc1csc(-c2ncc(Cl)cc2F)n1 [compound 5716, 2-[2-(5-chloro-3-fluoropyridin-2-yl)-1,3-thiazol-4-yl]acetic acid]	Moderate (0.1 mM)
O=C(O)C(O)Cc1cc(Cl)sc1Cl (centres unmarked) [compound 585, 3-(2,5-dichlorothiophen-3-yl)-2-hydroxypropanoic acid]	moderate
OCCc1ccsc1 [compound 589, 2-(thiophen-3-yl)ethan-1-ol]	strong
2-bromopyridine-4-carboxylic acid [compound 692]	Weak (Higher than 0.1 mM)
ethyl 2-(2-amino-5-chloro-1,3-thiazol-4-yl)-2,2-difluoroacetate [compound 5729]	Weak (Higher than 0.1 mM)
3-(thiophen-3-yl)propane-1,2-diol [compound 5604]	Moderate (0.1 mM)
Nc1nc(C(F)(F)c2ccccc2)cs1 [compound 5697, 4-[difluoro(phenyl)methyl]-1,3-thiazol-2-amine]	Strong (0.01 mM)
[3-(2-bromo-1,3-thiazol-4-yl)propyl]phosphonic acid [compound 5774]	Weak (Higher than 0.1 mM)
(2E)-3-(3-chloro-1H-1,2,4-triazol-5-yl)prop-2-enoic acid [compound 5621]	Weak (Higher than 0.1 mM)
O=C(Cc1csc(Cl)n1)OCC(=O)c1cccc(Br)n1 [compound 5801, 2-(6-bromopyridin-2-yl)-2-oxoethyl 2-(2-chloro-1,3-thiazol-4-yl)acetate]	Moderate (0.1 mM)
NC(=O)CC(N)c1ccnc(Br)c1 (centres unmarked) [compound 6616, 3-amino-3-(2-bromopyridin-4-yl)propanamide]	Weak (Higher than 0.1 mM)
(6-bromopyridin-2-yl)methyl 2-(2-chlorothiophen-3-yl)acetate [compound 5802]	Moderate (0.1 mM)
dichloro-1,3-thiazole-4-carboxamide [compound 5616]	Moderate (0.1 mM)
ethyl difluoro[5-(trifluoromethyl)thiophen-3-yl]acetate [compound 5707]	Weak (Higher than 0.1 mM)
O=C(O)/C=C/c1cncs1 [compound 5608, (2E)-3-(1,3-thiazol-5-yl)prop-2-enoic acid]	Weak (Higher than 0.1 mM)
O=C(O)C(F)(F)c1ccc(C(F)(F)F)c(Br)n1 [compound 6682, [6-bromo-5-(trifluoromethyl)pyridin-2-yl](difluoro)acetic acid]	Strong (0.01 mM)
O=C(Cl)c1nc(Cl)sc1Cl [compound 5613, 2,5-dichloro-1,3-thiazole-4-carbonylchloride]	Weak (Higher than 0.1 mM)
O=C(O)C1Cc2nnsc2S1 (centres unmarked) [compound 5750, 5H,6H-thieno[3,2-d][1,2,3]thiadiazole-5-carboxylic acid]	Moderate (0.1 mM)
2-(1,2,3-thiadiazol-4-yl)acetic acid [compound 5748]	Moderate (0.1 mM)
O=C(O)C(F)(F)c1ccc(F)c(Br)n1 [compound 6681, (6-bromo-5-fluoropyridin-2-yl)(difluoro)acetic acid]	very strong
O=C(O)C(F)(F)c1csc([N+](=O)[O-])n1 [compound 5719, 2,2-difluoro-2-(2-nitro-1,3-thiazol-4-yl)acetic acid]	Moderate (0.1 mM)

Compound	Score (activity score of Minimal Effective Concentration, MEC)
NCCc1ccsc1 [compound 588, 2-(thiophen-3-yl)ethan-1-amine]	weak
O=C(O)C(F)(F)c1ccc2[nH]c(=O)[nH]c2c1 [compound 5654, 2,2-difluoro-2-(2-oxo-23-dihydro-1H-1,3-benzodiazol-5-yl)acetic acid]	Weak (Higher than 0.1 mM)
2,2-difluoro-2-{2-[3-fluoro-5-(trifluoromethyl)pyridin-2-yl]-1,3-thiazol-4-yl}acetic acid [compound 5736]	Moderate (0.1 mM)
3-(1H-1,2,4-triazol-1-yl)propanoic acid [compound 5628]	Weak (Higher than 0.1 mM)
O=C(O)CCC(F)(F)c1cc(Cl)sc1Cl [compound 5632, 4-(2,5-dichlorothiophen-3-yl)-4,4-difluorobutanoic acid]	Moderate (0.1 mM)
6-bromopyridine-2-carbonitrile [compound 6670]	Weak (Higher than 0.1 mM)
3-{[(2,5-dichlorothiophen-3-yl)methyl]amino}-2,2-difluoropropanoic acid [compound 5624]	Weak (Higher than 0.1 mM)
{2-[(6-amino-9H-purin-9-yl)methoxy]ethoxy}methyl(2-chloro-1,3-thiazol-4-yl)acetate [compound 5752]	Moderate (0.1 mM)
[2-(2,5-dichlorothiophen-3-yl)ethyl]hydrazine [compound 5705]	Moderate (0.1 mM)
Cl.N=C(N)c1cccc(Br)n1 [compound 6634, 6-bromopyridine-2-carboximidamide hydrochloride[HCl]]	Weak (Higher than 0.1 mM)
[2,5-bis(trifluoromethyl)-1,3-thiazol-4-yl](difluoro)acetic acid [compound 5744]	Moderate (0.1 mM)
difluoro[4-(trifluoromethyl)-1,3-thiazol-2-yl]acetic acid [compound 5760]	Moderate (0.1 mM)
N′-[2-(2,5-dichlorothiophen-3-yl)ethyl]-N-(3-hydroxypropyl)guanidine [compound 5725]	Moderate (0.1 mM)
CCOC(=O)C(Br)c1nc(Br)sc1C (centres unmarked) [compound 5662, ethyl 2-bromo-2-(2-bromo-5-methyl-1,3-thiazol-4-yl)acetate]	Moderate (0.1 mM)
O=C(O)C(=O)c1c(Cl)sc(Cl)c1Cl [compound 5645, 2-oxo-2-(245-trichlorothiophen-3-yl)acetic acid]	Strong (0.01 mM)
O=C(O)C(O)Cc1ccnc(Br)c1 (centres unmarked) [compound 680, 3-(2-bromopyridin-4-yl)-2-hydroxypropanoic acid]	Weak (Higher than 0.1 mM)
O=C(O)C(F)(F)c1ccncc1 [compound 6614, 2,2-difluoro-2-(pyridin-4-yl)acetic acid]	Weak (Higher than 0.1 mM)
CNNC(=O)Cc1csc(Cl)n1 [compound 5715, 2-(2-chloro-1,3-thiazol-4-yl)-N′-methyl acetohydrazide]	Moderate (0.1 mM)
Cc1nsnc1CC(=O)O [compound 5785, (4-methyl-1,2,5-thiadiazol-3-yl)acetic acid]	Moderate (0.1 mM)
2-(1H-1,2,4-triazol-5-yl)ethan-1-amine [compound 592]	weak
O=C(O)C(F)(F)c1nc(F)c(F)cc1F [compound 6660, difluoro(3,5,6-trifluoropyridin-2-yl)acetic acid]	Moderate (0.1 mM)
2-(2,5-dichloro-1,3-thiazol-4-yl)ethan-1-amine [compound 5691]	Strong (0.01 mM)
NC(=O)Cc1ccsc1 [compound 591, 2-(thiophen-3-yl)acetamide]	moderate
NC(N)=NCCCc1cc(Cl)sc1Cl [compound 5765, N″-[3-(2,5-dichlorothiophen-3-yl)propyl]guanidine]	Strong (0.01 mM)
C[N+](C)(C)CCc1nc(Cl)sc1Cl [compound 5680, 2-(2,5-dichloro-1,3-thiazol-4-yl)-NNN-trimethylethan-1-aminium]	Weak (Higher than 0.1 mM)
